Data on 8 compounds can be found in patent US20200002354A1, “HEXAHYDROPYRAZINOBENZ- OR -PYRIDO-OXAZEPINES CARRYING AN OXYGEN-CONTAINING SUBSTITUENT AND USE THEREOF IN THE TREATMENT OF 5-HT2C-DEPENDENT DISORDERS” (AbbVie Deutschland GmbH & Co. KG, priority 2015, published 2020).

The target of one data set is T1, human 5-HT2B receptor (Homo sapiens, UniProt P41595).
T1 construct: expressed in transfected cells; host or cells: CHO-FlpIn
The experiment in a line: Human 5-HT2B functional assay (calcium mobilisation in CHO-FlpIn cells, FLIPR). The format is cell-based. To be noted: based on agonism: EC50 5-HT2B/EC50 5-HT2C. The protocol: 3. Human 5-HT2B Functional Assay
Functional activity on the 5-HT2B receptor was determined by testing the effect of the compounds I on calcium mobilisation in CHO-FlpIn cells, stably transfected with human 5-HT2B receptor. Cells were seeded into sterile black 384-well plates with clear bottom at 30,000 cells/well in a volume of 25 μl and grown overnight at 37° C., in 5% CO2 in tissue culture medium (“CHO-S-SFM II” by Invitrogen), containing 1% dialysed FCS and 50 μg/ml gentamicin (Invitrogen). On the next morning, medium was replaced by a serum free version of the same tissue culture medium for a further incubation for 4 hours at 37° C. and in 5% CO2. Cells were then loaded with a fluorescent calcium-sensitive dye in the presence of 0.07% probenecid for an hour at 37° C., according to the manufacturer's protocol (Ca5-Assay Kit, Molecular Devices), followed by an additional 60 min incubation at room temperature. Serial compound dilutions (final concentrations of 10^−10 to 10^−5M, prepared in HBSS+50 mM HEPES) were first added to the cells alone (“first addition” to assess agonism on the 5-HT2B receptor), then after 8 min, serotonin was added to the same wells at a final concentration of 10^−8 M (“second addition” to see potential antagonistic effect) and the maximal calcium response was determined using a FLIPR® Tetra instrument (Molecular Devices) in each of the two steps. The relative efficacy of the compounds was calculated as a percentage of the maximal effect induced by serotonin alone (defined as 100%). To determine EC50/IC50 values, concentration-response curves were fitted using a four-parameter logistic equation (IDBS Biobookml). Kb values were calculated from IC50 values, according to Cheng & Prusoff

Data set [1] can be described thus: Metabolic stability in human liver microsomes, unbound intrinsic clearance. The format is in vitro ADME. To be noted: liver microsomes, pH 7.4; unbound intrinsic clearance (human); Clint unbound = Cl int/fu mic; read-out: Cl int, mic unb. (h). The method, boiled down: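 Compound at 0.5 μM incubated with human liver microsomes (0.25 mg/mL) in 0.05 M potassium phosphate pH 7.4 at 37° C, started with 1.0 mM NADPH; sampled 0–30 min, parent quantified by LC-MS/MS. First-order t1/2 gives CLint (uL/min/mg), scaled to L/h/kg; unbound CLint = CLint/fu mic.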
(In general: Liver microsomes are vesicles of endoplasmic reticulum, rich in cytochrome P450 enzymes.)

For a further data set, the target named is T2, 5-HT2C receptor (Homo sapiens, UniProt P28335).
T2 construct: host or cells: U2OS
T2 sequence (P28335 33-458): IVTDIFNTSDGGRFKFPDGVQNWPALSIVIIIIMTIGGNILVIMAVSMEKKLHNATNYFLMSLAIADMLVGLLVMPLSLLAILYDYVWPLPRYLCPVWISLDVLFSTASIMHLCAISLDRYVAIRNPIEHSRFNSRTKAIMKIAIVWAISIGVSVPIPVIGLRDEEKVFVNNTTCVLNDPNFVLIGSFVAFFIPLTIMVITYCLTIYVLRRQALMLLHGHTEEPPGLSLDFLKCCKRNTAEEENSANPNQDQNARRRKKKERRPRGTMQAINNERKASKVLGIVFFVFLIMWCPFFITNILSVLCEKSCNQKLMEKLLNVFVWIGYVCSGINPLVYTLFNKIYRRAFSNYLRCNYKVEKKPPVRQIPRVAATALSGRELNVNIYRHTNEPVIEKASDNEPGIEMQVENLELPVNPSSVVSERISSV
T2 sequence (P32121 whole entry partner): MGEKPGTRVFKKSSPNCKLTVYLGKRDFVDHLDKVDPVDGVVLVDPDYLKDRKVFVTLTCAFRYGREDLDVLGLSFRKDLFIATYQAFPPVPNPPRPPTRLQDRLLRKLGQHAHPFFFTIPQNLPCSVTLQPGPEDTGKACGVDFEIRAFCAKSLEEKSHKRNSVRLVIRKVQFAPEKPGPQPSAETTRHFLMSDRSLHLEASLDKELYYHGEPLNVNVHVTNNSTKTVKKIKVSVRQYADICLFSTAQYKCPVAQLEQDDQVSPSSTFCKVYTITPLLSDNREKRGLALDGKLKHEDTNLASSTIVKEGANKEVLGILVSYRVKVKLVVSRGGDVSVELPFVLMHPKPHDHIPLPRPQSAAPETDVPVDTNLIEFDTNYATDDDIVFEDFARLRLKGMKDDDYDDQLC
The experiment in a line: Human 5-HT2C functional assay (beta-arrestin2 recruitment, U2OS_HTR2C_β-Arrestin cells). The format is cell-based. To be noted: for EC50: Potency (EC50 5-HT2C) in functional assay, agonism, read-out: EC50 5-HT2C; for Emax: relative efficacy vs maximal effect induced by 5-HT (defined as 100%). The method, boiled down: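 U2OS cells expressing human 5-HT2C with β-arrestin2 enzyme-fragment complementation; switched to 1% serum medium 24 h after plating, compounds added next day for 1.5 h. β-Galactosidase activity read by chemiluminescence; response expressed as percent of 10 μM 5-HT or maximal 5-HT effect (relative efficacy).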

A further data set addresses T3, human 5-HT2A receptor (Homo sapiens, UniProt P28223).
T3 construct: expressed in transfected cells; host or cells: CHO-K1
In words: Human 5-HT2A functional assay (calcium mobilisation in CHO-K1 cells, FLIPR). Type of data set: cell-based. To be noted: based on agonism: EC50 5-HT2A/EC50 5-HT2C. An outline of the steps: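 CHO-K1 cells stably expressing human 5-HT2A, serum-starved overnight and loaded with calcium dye plus 0.07% probenecid, were given compound (10^−10 to 10^−5 M) for agonism, then serotonin at 3×10^−8 M after 8 min for antagonism. FLIPR calcium responses were normalised to serotonin maximum, and EC50/IC50 came from four-parameter fits, with Kb via Cheng–Prusoff.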
For orientation: A change in cytosolic calcium serves as a functional read-out for many receptors and channels.

T3 sequence (P28223 whole entry): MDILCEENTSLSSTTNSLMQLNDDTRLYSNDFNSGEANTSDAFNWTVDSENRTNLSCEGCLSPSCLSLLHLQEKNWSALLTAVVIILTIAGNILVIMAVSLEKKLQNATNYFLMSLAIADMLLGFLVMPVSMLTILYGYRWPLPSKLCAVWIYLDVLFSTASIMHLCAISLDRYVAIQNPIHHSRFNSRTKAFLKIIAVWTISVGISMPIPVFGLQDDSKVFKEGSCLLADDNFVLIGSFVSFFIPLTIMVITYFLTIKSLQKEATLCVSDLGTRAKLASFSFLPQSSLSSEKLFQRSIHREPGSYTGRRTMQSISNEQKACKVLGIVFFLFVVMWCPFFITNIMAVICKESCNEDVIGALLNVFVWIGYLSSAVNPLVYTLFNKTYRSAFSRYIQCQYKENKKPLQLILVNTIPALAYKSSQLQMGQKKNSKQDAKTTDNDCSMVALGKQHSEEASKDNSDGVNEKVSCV
T1 sequence (P41595 whole entry): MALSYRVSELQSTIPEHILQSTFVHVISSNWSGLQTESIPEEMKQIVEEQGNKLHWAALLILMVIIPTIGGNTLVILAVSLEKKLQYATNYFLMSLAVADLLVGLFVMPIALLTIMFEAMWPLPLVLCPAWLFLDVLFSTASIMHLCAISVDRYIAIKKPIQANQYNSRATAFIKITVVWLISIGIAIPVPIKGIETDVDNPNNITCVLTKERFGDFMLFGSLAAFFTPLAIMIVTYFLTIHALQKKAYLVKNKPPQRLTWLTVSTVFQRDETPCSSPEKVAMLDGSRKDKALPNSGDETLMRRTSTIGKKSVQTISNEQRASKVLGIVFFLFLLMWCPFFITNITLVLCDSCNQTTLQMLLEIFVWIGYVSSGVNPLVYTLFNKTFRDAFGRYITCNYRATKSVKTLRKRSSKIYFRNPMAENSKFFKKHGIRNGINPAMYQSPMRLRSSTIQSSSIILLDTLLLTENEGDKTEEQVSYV

`COC[C@@H]1C[C@@H]2CNCCN2c2cc(Cl)c(F)cc2O1.Cl` [Example 31, (4aR,6S)-10-Chloro-9-fluoro-6-(methoxymethyl)-2,3,4,4a,5,6-hexahydro-1H-pyrazino[2,1-d][1,5]benzoxazepine hydrochloride]: the “Selectivity over 5-HT2B” value on human 5-HT2B receptor is reported as “++ (from >30 to 100)”. In addition, the CLint scaled at 0.5 μM in data set [1] is less than 83.3 mL/min/kg. In addition, at 5-HT2C receptor, the concentration for a half-maximal effect (EC50) was 20 to 200 nM and the maximal response (Emax) lay within 30 to 50%. For the same compound, the “Selectivity over 5-HT2A” value at human 5-HT2A receptor is reported as “++ (from >30 to 100)”.
As to `COC[C@@H]1C[C@@H]2CNCCN2c2ccc(C)c(F)c2O1` [Example 30, (4aR,6S)-8-Fluoro-6-(methoxymethyl)-9-methyl-2,3,4,4a,5,6-hexahydro-1H-pyrazino[2,1-d][1,5]benzoxazepine], the “Selectivity over 5-HT2B” value on human 5-HT2B receptor is given as “++ (from >30 to 100)”. Also, the CLint scaled at 0.5 μM in data set [1] was less than 83.3 mL/min/kg. In addition, at 5-HT2C receptor, the EC50 is 20 to 200 nM and the maximal response (Emax) was in the range of 50 to 70%. In addition, the “Selectivity over 5-HT2A” value on human 5-HT2A receptor is “++ (from >30 to 100)”.
Consider `COC[C@@H]1C[C@@H]2CNCCN2c2cccc(C(F)F)c2O1.Cl` [Example 6, (4aR,6S)-8-(Difluoromethyl)-6-(methoxymethyl)-2,3,4,4a,5,6-hexahydro-1H-pyrazino[2,1-d][1,5]benzoxazepine hydrochloride], for which the “Selectivity over 5-HT2B” value on human 5-HT2B receptor is on record as “++ (from >30 to 100)”. Besides, the CLint scaled at 0.5 μM in data set [1] was less than 83.3 mL/min/kg. Moreover, on 5-HT2C receptor, the EC50 is less than 20 nM and the maximum response (Emax) was greater than 70%. Further, the “Selectivity over 5-HT2A” value at human 5-HT2A receptor was “+++ (>100)”.
For `COC[C@@H]1C[C@@H]2CNCCN2c2c(F)c(F)c(OC)c(Cl)c2O1.Cl` [Example 53, (4aR,6S)-8-Chloro-10,11-difluoro-9-methoxy-6-(methoxymethyl)-2,3,4,4a,5,6-hexahydro-1H-pyrazino[2,1-d][1,5]benzoxazepine hydrochloride], on human 5-HT2B receptor, the “Selectivity over 5-HT2B” value is listed as “+++ (>100)”. In addition, in data set [1], the CLint scaled at 0.5 μM was in the range of 83.3 to 833 mL/min/kg. On 5-HT2C receptor, the EC50 fell in the range of 20 to 200 nM and the maximal response (Emax) lay within 50 to 70%. The “Selectivity over 5-HT2A” value at human 5-HT2A receptor is “+++ (>100)”.
With `COC[C@@H]1C[C@@H]2CNCCN2c2c(F)ccc(Cl)c2O1.O=C(O)/C=C/C(=O)O` [Example 15, (4aR,6S)-8-Chloro-11-fluoro-6-(methoxymethyl)-2,3,4,4a,5,6-hexahydro-1H-pyrazino[2,1-d][1,5]benzoxazepine; fumaric acid], the “Selectivity over 5-HT2B” value at human 5-HT2B receptor is “+++ (>100)”. In data set [1], the CLint scaled at 0.5 μM was less than 83.3 mL/min/kg. On 5-HT2C receptor, the EC50 is less than 20 nM and the Emax is greater than 70%. The “Selectivity over 5-HT2A” value on human 5-HT2A receptor was “+++ (>100)”.
Turning to `COC[C@@H]1C[C@@H]2CNCCN2c2c(F)cccc2O1.Cl` [Example 54, (4aR,6S)-11-Fluoro-6-(methoxymethyl)-2,3,4,4a,5,6-hexahydro-1H-pyrazino[2,1-d][1,5]benzoxazepine hydrochloride], the “Selectivity over 5-HT2B” value on human 5-HT2B receptor is “+ (from 10 to 30)”. Further, the CLint scaled at 0.5 μM in data set [1] is less than 83.3 mL/min/kg. Further, at 5-HT2C receptor, the EC50 is 200 to 1000 nM and the Emax lay within 30 to 50%. Moreover, on human 5-HT2A receptor, the “Selectivity over 5-HT2A” value is recorded as “+ (from 10 to 30)”.
For `COC[C@@H]1C[C@@H]2CNCCN2c2cccc(C#N)c2O1.Cl` [Example 12, (4aR,6S)-6-(Methoxymethyl)-2,3,4,4a,5,6-hexahydro-1H-pyrazino[2,1-d][1,5]benzoxazepine-8-carbonitrile hydrochloride], on human 5-HT2B receptor, the “Selectivity over 5-HT2B” value is on record as “+ (from 10 to 30)”. For the same compound, the CLint scaled at 0.5 μM in data set [1] is 83.3 to 833 mL/min/kg. At 5-HT2C receptor, the EC50 lay in the range of 20 to 200 nM and the Emax is greater than 70%. The “Selectivity over 5-HT2A” value at human 5-HT2A receptor is given as “+++ (>100)”.
As to `COC[C@@H]1C[C@@H]2CNCCN2c2c(F)c(F)cc(C(F)(F)F)c2O1.Cl` [Example 56, (4aR,6S)-10,11-Difluoro-6-(methoxymethyl)-8-(trifluoromethyl)-2,3,4,4a,5,6-hexahydro-1H-benzo[b]pyrazino[1,2-d][1,4]oxazepine hydrochloride], the “Selectivity over 5-HT2B” value at human 5-HT2B receptor is “+++ (>100)”. In data set [1], the CLint scaled at 0.5 μM was less than 83.3 mL/min/kg. Further, on 5-HT2C receptor, the EC50 was in the range of 20 to 200 nM and the Emax was greater than 70%. For the same compound, the “Selectivity over 5-HT2A” value on human 5-HT2A receptor is “+++ (>100)”.

As usually defined, the EC50 is the concentration that produces a half-maximal response. The Emax is the size of the effect at its maximum, as opposed to the concentration needed.
